Laboratory results: patent US8586591B2, “Aminopyrazine derivative and medicine” (Nippon Shinyaku Co., Ltd., priority 2009, dated 2013)
Counter-ions that a name gives are not always drawn.

Tests used:
[1] = biological target: T1, JAK2 tyrosine kinase (Homo sapiens, UniProt O60674); assay: Test 1: inhibitory activity to JAK2 tyrosine kinase (ELISA); assay type: biochemical; details: 25 μM ATP in substrate solution, 30° C. for 1 hour, n=2
T1 construct: purchased Carnabioscience Co
Description: Test 1: Test for inhibitory activity to JAK2 and JAK3 tyrosine kinase 1. Preparation of Test Material
The test material was dissolved in dimethylsulfoxide (DMSO) to be 10 mM, and further diluted with DMSO to be 100-fold concentrations for measurement (1000, 300, 100, 30, 10, 3, 1, 0.3, 0.1, 0.03, 0.01 μM). In addition, solutions diluted with an assay buffer up to 20 times were used as solutions of the test material. As a negative control, a solution of DMSO diluted 20 times with an assay buffer was used. As the assay buffer, 15 mM Tris-Cl (pH 7.5), 0.01 v/v % Tween-20, and 1 mM dithiothreitol were used.
2. Measurement of the Activities of JAK2 and JAK3 Tyrosine Kinases
The activity was determined by ELISA. The solution of the test material (10 μl each; n=2) was placed in a streptavidine-coated 96 well plate (DELFIA Strip Plate 8×12 wells; Perkin Elmer), to which 20 μl each of substrate solution (625 nM biotin-labeled peptide substrate, 25 μM ATP, 25 mM MgCl2, 15 mM Tris-Cl (pH 7.5), 0.01 v/v % Tween-20, and 1 mM dithiothreitol), was added and stirred. Finally, 20 μl each of JAK2 tyrosine kinase (Carnabioscience Co.) (diluted to 0.75 nM with assay buffer) or JAK3 tyrosine kinase (Carnabioscience Co.) (diluted to 0.75 nM with assay buffer) was added, stirred and allowed to stand at 30° C. for 1 hour. The plate was washed 4 times with a washing buffer (50 mM Tris-Cl, pH 7.5, 150 mM NaCl, 0.02 v/v % Tween-20), and then a blocking buffer (0.1% Bovine Serum Albumin, 50 mM Tris-Cl, pH 7.5, 150 mM NaCl, 0.02 v/v % Tween-20)(150 μl each) was added for blocking at 30° C. for 30 minutes. Blocking buffer was removed, and there was added 100 μl each of horse radish peroxidase-labeled anti-phosphorylated tyrosin kinase antibody (BD Bioscience Co.) (diluted 10,000 times with blocking buffer). The plate was incubated at 30° C. for 30 minutes and then washed 4 times with a washing buffer, and 100 μl each of 3,3′,5,5′-tetramethylbenzidine (Sigma-Aldrich Co.) was added to develop color for 10 minutes. 0.1 M sulfuric acid (100 μl each) was added to stop the reaction. The absorbance was measured by means of a micro-plate reader (BIO-RAD; Model 3550) at 450 nm.
3. Analysis of the Results of the Measurement
The measured absorbance was subjected to a non-linear regression analysis by means of a SAS system (SAS Institute Inc.), and the concentration (IC50) of the test material which inhibited 50% of the activity of each tyrosine kinase was estimated.

[2] = biological target: T2, JAK3 tyrosine kinase (Homo sapiens, UniProt P52333); assay: Test 1: inhibitory activity to JAK3 tyrosine kinase (ELISA); assay type: biochemical; details: 25 μM ATP in substrate solution, 30° C. for 1 hour, n=2
T2 construct: purchased Carnabioscience Co
T2 sequence (P52333 1-1124): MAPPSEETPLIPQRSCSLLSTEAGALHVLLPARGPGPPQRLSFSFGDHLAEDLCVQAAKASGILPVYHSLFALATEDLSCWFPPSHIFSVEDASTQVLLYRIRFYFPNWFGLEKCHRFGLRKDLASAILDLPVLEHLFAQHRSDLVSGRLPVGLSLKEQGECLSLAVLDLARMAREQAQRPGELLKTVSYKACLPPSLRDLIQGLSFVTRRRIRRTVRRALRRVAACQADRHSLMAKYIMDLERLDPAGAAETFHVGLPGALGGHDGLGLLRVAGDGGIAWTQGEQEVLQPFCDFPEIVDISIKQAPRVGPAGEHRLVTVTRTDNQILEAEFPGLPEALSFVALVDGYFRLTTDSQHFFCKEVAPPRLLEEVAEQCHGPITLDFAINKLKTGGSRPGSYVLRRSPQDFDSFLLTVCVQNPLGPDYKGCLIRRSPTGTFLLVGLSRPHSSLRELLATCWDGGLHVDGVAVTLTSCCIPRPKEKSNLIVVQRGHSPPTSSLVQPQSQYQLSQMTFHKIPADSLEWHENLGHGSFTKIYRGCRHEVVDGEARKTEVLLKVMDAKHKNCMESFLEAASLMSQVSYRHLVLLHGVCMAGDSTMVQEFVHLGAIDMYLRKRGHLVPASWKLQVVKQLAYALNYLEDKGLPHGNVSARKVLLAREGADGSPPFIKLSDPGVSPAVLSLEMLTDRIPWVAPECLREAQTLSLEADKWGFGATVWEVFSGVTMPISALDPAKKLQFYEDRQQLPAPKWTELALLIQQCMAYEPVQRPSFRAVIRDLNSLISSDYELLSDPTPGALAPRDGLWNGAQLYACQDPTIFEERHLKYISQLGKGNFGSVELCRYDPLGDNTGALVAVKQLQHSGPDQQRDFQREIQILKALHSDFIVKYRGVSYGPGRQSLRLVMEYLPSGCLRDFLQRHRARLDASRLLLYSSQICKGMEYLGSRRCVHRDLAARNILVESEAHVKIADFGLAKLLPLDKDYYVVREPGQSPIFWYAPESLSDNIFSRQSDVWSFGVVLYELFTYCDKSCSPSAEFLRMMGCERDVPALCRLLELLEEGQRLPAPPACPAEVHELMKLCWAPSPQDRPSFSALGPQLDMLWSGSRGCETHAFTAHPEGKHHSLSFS
In short: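 ELISA of JAK3 kinase activity with absorbance read at 450 nm. Compounds were tested from DMSO dilution series at 100-fold the measurement concentrations (1000–0.01 μM), diluted up to 20 times in assay buffer, against a DMSO negative control. IC50 was estimated by non-linear regression of absorbance.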

T1 sequence (O60674 whole entry): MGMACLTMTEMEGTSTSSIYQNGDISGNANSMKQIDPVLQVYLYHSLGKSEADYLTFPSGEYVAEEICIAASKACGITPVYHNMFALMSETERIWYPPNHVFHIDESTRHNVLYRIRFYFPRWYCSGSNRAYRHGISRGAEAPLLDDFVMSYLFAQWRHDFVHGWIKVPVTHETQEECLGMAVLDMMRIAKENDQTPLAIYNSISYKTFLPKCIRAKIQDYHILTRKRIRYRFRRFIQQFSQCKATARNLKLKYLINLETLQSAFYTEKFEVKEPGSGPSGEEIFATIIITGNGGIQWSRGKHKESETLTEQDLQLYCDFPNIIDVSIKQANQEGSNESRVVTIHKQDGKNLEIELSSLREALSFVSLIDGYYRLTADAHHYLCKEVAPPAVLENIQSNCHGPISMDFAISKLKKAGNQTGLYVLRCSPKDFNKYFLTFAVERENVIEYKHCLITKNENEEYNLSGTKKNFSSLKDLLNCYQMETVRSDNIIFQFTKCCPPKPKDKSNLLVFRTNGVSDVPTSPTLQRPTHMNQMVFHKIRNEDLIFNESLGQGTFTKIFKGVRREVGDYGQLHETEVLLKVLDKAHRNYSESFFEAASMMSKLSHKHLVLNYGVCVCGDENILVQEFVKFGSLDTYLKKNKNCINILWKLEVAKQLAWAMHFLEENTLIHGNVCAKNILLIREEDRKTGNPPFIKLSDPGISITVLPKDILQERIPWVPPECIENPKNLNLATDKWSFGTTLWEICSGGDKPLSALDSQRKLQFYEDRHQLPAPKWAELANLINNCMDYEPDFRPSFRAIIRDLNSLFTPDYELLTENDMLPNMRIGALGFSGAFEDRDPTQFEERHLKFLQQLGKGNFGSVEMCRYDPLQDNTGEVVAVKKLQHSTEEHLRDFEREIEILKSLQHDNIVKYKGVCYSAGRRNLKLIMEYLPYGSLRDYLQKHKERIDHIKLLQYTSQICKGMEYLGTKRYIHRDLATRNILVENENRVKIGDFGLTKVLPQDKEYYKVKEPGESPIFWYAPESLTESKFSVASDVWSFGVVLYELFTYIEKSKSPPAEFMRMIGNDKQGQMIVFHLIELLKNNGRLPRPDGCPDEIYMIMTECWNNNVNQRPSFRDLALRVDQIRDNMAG

SMILES | IC50 [1] [nM] | IC50 [2] [nM]
C[C@H](Nc1cc(-c2cc[nH]c2)cc(Nc2cnccn2)n1)c1ccc(F)cc1 [Example 116, (S)—N^2-[1-(4-Fluorophenyl)ethyl]-N^6-(pyrazin-2-yl)-4-(1H-pyrrol-3-yl)pyridine-2,6-diamine dihydrochloride] | 5.3 | 340
C[C@H](Nc1nc(Nc2cnccn2)ccc1C(=O)N(C)C)c1ccc(F)cc1 [Example 186, (S)-2-[1-(4-Fluorophenyl)ethylamino]-N,N-dimethyl-6-(pyrazin-2-ylamino) nicotinamide] | 5.5 | 240
COc1ccc(-c2cc(Nc3cnccn3)nc(N[C@@H](C)c3ccc(F)cc3)c2)cc1 [Example 119, (S)—N^2-[1-(4-Fluorophenyl)ethyl]-4-(4-methoxyphenyl)-N^6-(pyrazin-2-yl)pyridine-2,6-diamine hydrochloride] | 28 | 1600
C[C@H](Nc1nc(NCCN)cc(Nc2cnccn2)n1)c1ccc(F)cc1 [Example 76, (S)—N^4-(2-Aminoethyl)-N^2-[1-(4-fluorophenyl)ethyl]-N^6-(pyrazin-2-yl)pyrimidine-2,4,6-triamine dihydrochloride] | 2.5 | 57
C[C@H](Nc1nc(Nc2cnccn2)cc(N2CCN(S(=O)(=O)c3ccccc3)CC2)n1)c1ccc(F)cc1 [Example 114, (S)—N^2-[1-(4-Fluorophenyl)ethyl]-6-[4-(phenylsulfonyl)piperazin-1-yl]-N^4-(pyrazin-2-yl)pyrimidine-2,4-diamine hydrochloride] | 4.8 | 66
Cc1cnc(CNc2cc(Nc3cnccn3)nc(N[C@@H](C)c3ccc(F)cc3)n2)cn1 [Example 102, (S)—N^2-[1-(4-Fluorophenyl)ethyl]-N^4-[(5-methylpyrazin-2-yl)methyl]-N^6-(pyrazin-2-yl)pyrimidine-2,4,6-triamine hydrochloride] | 2.6 | 140
C[C@H](Nc1nc(Cl)cc(Nc2cnccn2)n1)c1ccc(F)cc1 [Example 9, (S)-6-Chloro-N^2-[1-(4-fluorophenyl)ethyl]-N^4-(pyrazin-2-yl)pyrimidine-2,4-diamine] | 16 | 360
C[C@H](Nc1nc(Nc2cnccn2)cc(N(CCO)CCO)n1)c1ccc(F)cc1 [Example 61, (S)-2-({2-[1-(4-Fluorophenyl)ethylamino]-6-(pyrazin-2-ylamino)pyrimidin-4-yl}(2-hydroxyethyl)amino)ethan-1-ol hydrochloride] | 6 | 150
C[C@H](Nc1nc(Nc2cnccn2)cc(-c2cccc(C#N)c2)n1)c1ccc(F)cc1 [Example 81, (S)-3-{2-[1-(4-Fluorophenyl)ethylamino]-6-(pyrazin-2-ylamino)pyrimidin-4-yl}benzonitrile] | 5.6 | 480
C[C@H](Nc1cc(-c2cnn(Cc3ccccc3)c2)cc(Nc2cnccn2)n1)c1ccc(F)cc1 [Example 113, (S)-4-(1-Benzyl-1H-pyrazol-4-yl)-N^2-[1-(4-fluorophenyl)ethyl]-N^6-(pyrazin-2-yl)pyridine-2,6-diamine] | 4.9 | 200

These reach a lower IC50 [1]. Values come first.

IC50 [1] [nM] | IC50 [2] [nM] | SMILES
2.4 | 400 | C[C@H](Nc1nc(Nc2cnccn2)ccc1C(N)=O)c1ccc(F)cc1 [Example 187, (S)-2-[1-(4-Fluorophenyl)ethylamino]-6-(pyrazin-2-ylamino) nicotinamide]
2.3 | 210 | C[C@H](Nc1cc(C2CCN(S(C)(=O)=O)CC2)cc(Nc2cnccn2)n1)c1ccc(F)cc1 [Example 215, (S)—N^2-[1-(4-Fluorophenyl)ethyl]-4-[1-(methanesulfonyl)piperidin-4-yl]-N^6-(pyrazin-2-yl)pyridine-2,6-diamine]
2.3 | 210 | C[C@H](Nc1cc(-c2ccc(C(N)=O)cc2)cc(Nc2cnccn2)n1)c1ccc(F)cc1 [Example 115, (S)-4-{2-[1-(4-Fluorophenyl)ethylamino]-6-(pyrazin-2-ylamino)pyridin-4-yl}benzamide dihydrochloride]
1.6 | 130 | C[C@H](Nc1cc(N2CCC(O)(CO)CC2)cc(Nc2cnccn2)n1)c1ccc(F)cc1 [Example 125, (S)-1-{2-[1-(4-Fluorophenyl)ethylamino]-6-(pyrazin-2-ylamino)pyridin-4-yl}-4-(hydroxymethyl)piperidin-4-ol]
1.3 | 66 | C[C@H](Nc1cc(N2CCN(S(C)(=O)=O)CC2)cc(Nc2cnccn2)n1)c1ccc(F)cc1 [Example 124, (S)—N^2-[1-(4-Fluorophenyl)ethyl]-4-[4-(methylsulfonyl)piperazin-1-yl]-N^6-(pyrazin-2-yl)pyridine-2,6-diamine hydrochloride]
1 | 39 | CC(Nc1cc(Nc2cnccn2)nc(N[C@@H](C)c2ccc(F)cc2)n1)c1cccnc1 (stereo partly drawn) [Example 104, (S)—N^2-[1-(4-Fluorophenyl)ethyl]-N^4-(pyrazin-2-yl)-N^6-[1-(pyridin-3-yl)ethyl]pyrimidine-2,4,6-triamine]
0.92 | 45 | C[C@H](Nc1nc(Nc2cnccn2)cc(N2CC(C)(O)C2)n1)c1ccc(F)cc1 [Example 184, (S)-1-{2-[1-(4-Fluorophenyl)ethylamino]-6-(pyrazin-2-ylamino)pyrimidin-4-yl}-3-methylazetidin-3-ol hydrochloride]
0.77 | 56 | C[C@H](Nc1nc(NCc2cccnc2)cc(Nc2cnccn2)n1)c1ccc(F)cc1 [Example 107, (S)—N^2-[1-(4-Fluorophenyl)ethyl]-N^4-(pyrazin-2-yl)-N^6-(pyridin-3-ylmethyl)pyrimidine-2,4,6-triamine]
0.72 | 26 | C[C@H](Nc1nc(Nc2cnccn2)cc(N2CCC(O)CC2)n1)c1ccc(F)cc1 [Example 71, (S)-1-{2-[1-(4-Fluorophenyl)ethylamino]-6-(pyrazin-2-ylamino)pyrimidin-4-yl}piperidin-4-ol hydrochloride]
0.51 | 59 | C[C@H](Nc1nc(Nc2cnccn2)cc(-c2cn[nH]c2)n1)c1ccc(F)cc1 [Example 34, (S)—N^2-[1-(4-Fluorophenyl)ethyl]-N^4-(pyrazin-2-yl)-6-(1H-pyrazol-4-yl)pyrimidine-2,4-diamine maleate]
